Test results: US12215173B2, “Kappa opioid receptor peptide amide ligands” (priority 2019, dated 2025)
Like-named read-outs stand apart in the source and are kept apart here. Square brackets hold non-standard residues; d marks the D form. Peptide text beside a SMILES is read from it. * marks the point of attachment. Pyrrolidinyl(3-NH2,3-CO2Me) = COC(=O)C1(N)CCN(*)C1; Piperidin1yl(4-NH2,4-COOH) = NC1(C(=O)O)CCN(*)CC1; dAla(cPr) = N[C@H](CC1CC1)C(=O)O

Tests used:
[1] = target: recombinant human kappa (KOR) opioid receptor (Homo sapiens (Human), UniProt P41145); experiment: biochemical; assay type: binding; details: HEK293 cell membranes, 0.5 nM [3H]diprenorphine
[2] = target: recombinant human mu (MOR) opioid receptor (Homo sapiens (Human), UniProt P35372); experiment: Opioid receptor radioligand binding assay, MOR
[3] = target: recombinant human delta (DOR) opioid receptor (Homo sapiens (Human), UniProt P41143); experiment: Opioid receptor radioligand binding assay, DOR
[4] = target: Opioid Kappa Receptor (recombinant human, HEK293 cells) (Homo sapiens (Human), UniProt P41145); experiment: cell-based; details: read-out: EC50
[5] = HEK293 cell membranes, 0.5 nM [3H]DAMGO, read-out: MOR, IC50
[6] = HEK293 cell membranes, 0.5 nM [3H]DADLE, read-out: DOR, IC50

Chain of recombinant human delta (DOR) opioid receptor (P41143 whole entry, looked up): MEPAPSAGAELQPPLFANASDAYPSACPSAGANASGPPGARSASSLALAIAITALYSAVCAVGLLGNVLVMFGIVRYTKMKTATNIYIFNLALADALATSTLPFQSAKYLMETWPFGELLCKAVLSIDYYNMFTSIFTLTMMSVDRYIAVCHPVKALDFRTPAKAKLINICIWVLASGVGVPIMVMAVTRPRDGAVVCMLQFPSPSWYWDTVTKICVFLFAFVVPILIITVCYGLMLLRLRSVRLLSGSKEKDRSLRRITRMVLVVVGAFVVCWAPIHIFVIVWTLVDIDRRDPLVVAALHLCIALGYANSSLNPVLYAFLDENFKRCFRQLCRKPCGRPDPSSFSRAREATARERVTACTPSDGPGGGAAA

Row | SMILES | IC50 [1] | IC50 [2] | IC50 [3] | EC50 [4] | IC50 [2, 5] | IC50 [3, 6]
1 | CC(C)C[C@@H](NC(=O)[C@@H](Cc1ccccc1)NC(=O)[C@H](N)Cc1ccccc1)C(=O)N[C@H](CCCCN)C(=O)NCC(=O)N1CCC(N)(C(=O)O)CC1 [Compound 67] (H-[dF][dF][dL][dK]G-{Piperidin1yl(4-NH2,4-COOH)}) | 24.8 nM | 5150 nM | > 10000 nM | 51.5 nM | – | –
2 | CNCCOC(=O)C1(N)CCN(C(=O)[C@@H](CCCCN)NC(=O)[C@@H](CC(C)C)NC(=O)[C@@H](Cc2ccccc2)NC(=O)[C@H](N)Cc2ccccc2)C1 (stereo partly shown) [Compound 60] | 0.94 nM | – | – | 7.19 nM | > 10000 nM | > 10000 nM
3 | COC(=O)C(=O)NC1CCN(C(=O)[C@@H](CCCCN)NC(=O)[C@@H](CC(C)C)NC(=O)[C@@H](Cc2ccccc2)NC(=O)[C@H](N)Cc2ccccc2)CC1 [Compound 13-29] | 0.29 nM | – | – | 15.5 nM | 6.86 nM | > 10000 nM
4 | CC(C)C[C@@H](NC(=O)[C@@H](Cc1ccccc1)NC(=O)[C@H](N)Cc1ccccc1)C(=O)N[C@H](CCCCN)C(=O)NC[C@H](N)C(=O)O [Compound 13-13] | 16.1 nM | – | – | 88.4 nM | > 10000 nM | > 10000 nM
5 | CC(C)C[C@@H](NC(=O)[C@@H](Cc1ccccc1)NC(=O)[C@H](N)Cc1ccccc1)C(=O)N[C@H](CCCCN)C(=O)N1CCN(C(=O)C(=O)NC2CC2)CC1 [Compound 13-23] | 0.79 nM | – | – | 8.58 nM | 318 nM | > 10000 nM
6 | CNC(=O)C(=O)N1CCN(C(=O)[C@@H](CCCCN)NC(=O)[C@@H](CC(C)C)NC(=O)[C@@H](Cc2ccccc2)NC(=O)[C@H](N)Cc2ccccc2)CC1 [Compound 13-27] | 0.53 nM | – | – | 12 nM | > 10000 nM | > 10000 nM
7 | CC(C)C[C@@H](NC(=O)[C@@H](Cc1ccccc1)NC(=O)[C@H](N)Cc1ccccc1)C(=O)N[C@H](CCCCN)C(=O)N1CC(=O)NC(=O)C1 [Compound 13-63] | 1.81 nM | – | – | 5.2 nM | > 10000 nM | > 10000 nM
8 | COC(=O)C1(N)CCN(C(=O)[C@@H](CCCNC(=N)N)NC(=O)[C@@H](CC2CC2)NC(=O)[C@@H](Cc2ccccc2)NC(=O)[C@H](N)Cc2ccccc2)C1 (stereo partly shown) [Compound 133] (H-[dF][dF][dAla(cPr)][dR]-{Pyrrolidinyl(3-NH2,3-CO2Me)}) | 1.3 nM | – | – | 9.64 nM | > 10000 nM | > 10000 nM
9 | CCOC(=O)C(=O)NC1CCN(C(=O)[C@@H](CCCCN)NC(=O)[C@@H](CC(C)C)NC(=O)[C@@H](Cc2ccccc2)NC(=O)[C@H](N)Cc2ccccc2)CC1 [Compound 13-31] | 0.28 nM | – | – | 17.9 nM | 172 nM | > 10000 nM
10 | CC(C)C[C@@H](NC(=O)[C@@H](Cc1ccccc1)NC(=O)[C@H](N)Cc1ccccc1)C(=O)N[C@H](CCCCN)C(=O)N1CCC(NC(=O)[C@@H](N)CC(N)=O)CC1 [Compound 13-42] | 0.48 nM | – | – | 8.43 nM | > 10000 nM | > 10000 nM
11 | CC(=O)N[C@@H](CCC(N)=O)C(=O)NC1CCN(C(=O)[C@@H](CCCCN)NC(=O)[C@@H](CC(C)C)NC(=O)[C@@H](Cc2ccccc2)NC(=O)[C@H](N)Cc2ccccc2)CC1 [Compound 13-56] | 0.35 nM | > 10000 nM | > 10000 nM | 16.7 nM | – | –
12 | CC(C)C[C@@H](NC(=O)[C@@H](Cc1ccccc1)NC(=O)[C@H](N)Cc1ccccc1)C(=O)N[C@H](CCCCN)C(=O)N1CCC(N)(C(=O)OCCO)C1 (stereo partly shown) [Compound 50] | 0.39 nM | – | – | 9.07 nM | 7530 nM | > 10000 nM
13 | CC(C)C[C@@H](NC(=O)[C@@H](Cc1ccccc1)NC(=O)[C@H](N)Cc1ccccc1)C(=O)N[C@H](CCCCN)C(=O)NC1CCN(C(=O)C(=O)N(C)C)CC1 [Compound 13-17] | 23.4 nM | – | – | 22 nM | > 10000 nM | > 10000 nM
14 | CC(C)C[C@@H](NC(=O)[C@@H](Cc1ccccc1)NC(=O)[C@H](N)Cc1ccccc1)C(=O)N[C@H](CCCCN)C(=O)N1CCC(NC(=O)CNC(N)=O)CC1 [Compound 13-55] | 0.35 nM | > 10000 nM | > 10000 nM | 20.4 nM | – | –
15 | CNC(=O)NC1CCN(C(=O)[C@@H](CCCCN)NC(=O)[C@@H](CC(C)C)NC(=O)[C@@H](Cc2ccccc2)NC(=O)[C@H](N)Cc2ccccc2)CC1 [Compound 13-60] | 0.42 nM | > 10000 nM | > 10000 nM | 14.3 nM | – | –
16 | COCCOCCNC(=O)[C@@H](CCCCN)NC(=O)[C@@H](CC(C)C)NC(=O)[C@@H](Cc1ccccc1)NC(=O)[C@H](N)Cc1ccccc1 [Compound 13-4] | 2.8 nM | – | – | 13.5 nM | > 10000 nM | > 10000 nM
17 | COC(=O)C1(N)CCN(C(=O)[C@@H](CCCCN)NC(=O)[C@@H](CC(C)C)NC(=O)[C@@H](Cc2ccccc2)NC(=O)[C@H](N)Cc2ccccc2)C1 (stereo partly shown) [Compound 13-62] | 0.2 nM | > 10000 nM | > 10000 nM | 2.96 nM | – | –
18 | CC(C)C[C@@H](NC(=O)[C@@H](Cc1ccccc1)NC(=O)[C@H](N)Cc1ccccc1)C(=O)N[C@H](CCCCN)C(=O)N1CCN(C(=O)N(C)C)CC1 [Compound 13-59] | 0.36 nM | – | – | 14.3 nM | > 10000 nM | > 10000 nM
19 | CCNC(=O)C(=O)N1CCN(C(=O)[C@@H](CCCCN)NC(=O)[C@@H](CC(C)C)NC(=O)[C@@H](Cc2ccccc2)NC(=O)[C@H](N)Cc2ccccc2)CC1 [Compound 13-43] | 0.33 nM | – | – | 8.7 nM | > 10000 nM | > 10000 nM
20 | COC(=O)C1(N)CCN(C(=O)[C@@H](CCCCN)NC(=O)[C@@H](CC2CC2)NC(=O)[C@@H](Cc2ccccc2)NC(=O)[C@H](N)Cc2ccccc2)C1 (stereo partly shown) [Compound 118] (H-[dF][dF][dAla(cPr)][dK]-{Pyrrolidinyl(3-NH2,3-CO2Me)}) | 0.33 nM | – | – | 9.31 nM | > 10000 nM | > 10000 nM
21 | CC(C)C[C@@H](NC(=O)[C@@H](Cc1ccccc1)NC(=O)[C@H](N)Cc1ccccc1)C(=O)N[C@H](CCCCN)C(=O)N1CCN(C(=O)C(=O)N(C)C)CC1 [Compound 13-26] | 1.83 nM | – | – | 10.2 nM | > 10000 nM | > 10000 nM
22 | CC(C)C[C@@H](NC(=O)[C@@H](Cc1ccccc1)NC(=O)[C@H](N)Cc1ccccc1)C(=O)N[C@H](CCCCN)C(=O)NC1CCN(C(=O)C(N)=O)CC1 [Compound 13-34] | 3.33 nM | – | – | 20.2 nM | 2980 nM | > 10000 nM
